We go through 22 compounds from patent US11845724B2, “USP30 inhibitors and uses thereof” (Vincere Biosciences, Inc., priority 2019, dated 2023).

Counter-ions that a name gives are not always drawn. Like-named read-outs stand apart in the source and are kept apart here.

In this assay the target is recombinant USP30 (amino acids 57-517 of the human sequence) (Homo sapiens (Human), UniProt Q70CQ3). Put plainly: In vitro USP30 biochemical assay (Ubiquitin-Rhodamine).
The mark [1] stands for this setting: read-out: USP30 IC50 μM (avg), Ubiquitin-Rhodamine substrate 25 nM, 1.5 nM recombinant USP30.
Setting [2] is: USP30 IC50 μM (avg), Ubiquitin-Rhodamine substrate 25 nM, 1.5 nM recombinant USP30.

Chain of recombinant USP30 (amino acids 57-517 of the human sequence) (Q70CQ3 57-517): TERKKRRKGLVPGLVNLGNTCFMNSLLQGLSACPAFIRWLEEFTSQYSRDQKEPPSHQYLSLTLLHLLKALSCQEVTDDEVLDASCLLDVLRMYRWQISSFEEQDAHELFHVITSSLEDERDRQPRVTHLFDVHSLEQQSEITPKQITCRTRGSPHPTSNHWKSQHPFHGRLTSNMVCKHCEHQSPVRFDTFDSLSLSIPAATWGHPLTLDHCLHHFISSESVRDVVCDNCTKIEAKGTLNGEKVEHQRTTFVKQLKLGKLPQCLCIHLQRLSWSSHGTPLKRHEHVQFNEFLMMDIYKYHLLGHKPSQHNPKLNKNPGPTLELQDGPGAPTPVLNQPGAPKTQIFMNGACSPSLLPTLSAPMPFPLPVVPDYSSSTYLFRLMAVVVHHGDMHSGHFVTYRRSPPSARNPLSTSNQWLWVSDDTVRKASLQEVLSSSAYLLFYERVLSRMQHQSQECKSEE

`CC(C)(C)NS(=O)(=O)c1ccc(NC(=O)C2Cc3ccncc3N2C(=O)c2ccc(F)cc2)cc1` (stereo not shown) [Compound I-56, N-(4-(N-tert-butylsulfamoyl)phenyl)-1-(4-fluorobenzoyl)-2,3-dihydro-1H-pyrrolo[2,3-c]pyridine-2-carboxamide]: the IC50 under setting [1] is more than 10 µM.
On the same count and under the same terms, for `CC(C)(C)NS(=O)(=O)c1ccc(NC(=O)[C@H](Cc2ccccc2)NC(=O)C2COC2)cc1` [Compound I-86, (S)-N-(1-(4-(N-tert-butylsulfamoyl)phenylamino)-1-oxo-3-phenylpropan-2-yl)oxetane-3-carboxamide] the value was more than 10 µM; for `O=C(NC1(C(=O)Nc2ccc(S(=O)(=O)NC3CC3)cc2)Cc2ccccc2C1)c1ccc(F)cc1` [Compound I-103, N-(4-(N-cyclopropylsulfamoyl)phenyl)-2-(4-fluorobenzamido)-2,3-dihydro-1H-indene-2-carboxamide], more than 10 µM.
Turning to `CN(C)CCNS(=O)(=O)c1ccc(NC(=O)[C@H](Cc2ccccc2)NC(=O)c2ccc(F)cc2)cn1` [Compound I-109, (S)-N-(1-(6-(N-(2-(dimethylamino)ethyl)sulfamoyl)pyridin-3-ylamino)-1-oxo-3-phenylpropan-2-yl)-4-fluorobenzamide formate], under setting [2], the IC50 fell in the range of 1 to 10 µM.
Turning to `O=C(N[C@@H](Cc1ccccc1)C(=O)Nc1ccc(S(=O)(=O)NCCO)nc1)c1ccc(F)cc1` [Compound I-110, (S)-4-fluoro-N-(1-(6-(N-(2-hydroxyethyl)sulfamoyl)pyridin-3-ylamino)-1-oxo-3-phenylpropan-2-yl)benzamide], under setting [2], the half-maximal inhibitory concentration (IC50) lay in the range of 0.05 to 1 µM.
Regarding `CN(C)S(=O)(=O)c1cccc2c(NC(=O)[C@H](Cc3ccccc3)NC(=O)C3CCCCC3)cccc12` [Compound I-127, (S)-N-(1-(5-(N,N-dimethylsulfamoyl)naphthalen-1-ylamino)-1-oxo-3-phenylpropan-2-yl)cyclohexanecarboxamide], the 50% inhibitory concentration (IC50) under setting [1] is more than 10 µM.
Turning to `CN(C)S(=O)(=O)c1cccc2c(NC(=O)[C@H](Cc3ccccc3)NC(=O)c3ccc(F)cc3)cccc12` [Compound I-128, (S)-N-(1-(5-(N,N-dimethylsulfamoyl)naphthalen-1-ylamino)-1-oxo-3-phenylpropan-2-yl)-4-fluorobenzamide], the IC50 under setting [1] was more than 10 µM.
Consider `CCNS(=O)(=O)c1ccc(NC(=O)[C@H](Cc2ccccc2)NC(=O)c2ccc(F)cc2)c(OC)c1` [Compound I-143, (S)-N-(1-(4-(N-ethylsulfamoyl)-2-methoxyphenylamino)-1-oxo-3-phenylpropan-2-yl)-4-fluorobenzamide], for which, under setting [2], the IC50 lay in the range of 1 to 10 µM.
The same measure, in the same setting: the figure for `COc1cc(S(=O)(=O)NC23CC(C2)C3)ccc1NC(=O)[C@H](Cc1ccccc1)NC(=O)c1ccc(F)cc1` [Compound I-145, (S)-N-(1-(4-(N-bicyclo[1.1.1]pentan-1-ylsulfamoyl)-2-methoxyphenylamino)-1-oxo-3-phenylpropan-2-yl)-4-fluorobenzamide] is 1 to 10 µM; for `COc1cc(NC(=O)[C@H](Cc2ccccc2)NC(=O)c2ccc(F)cc2)ccc1S(=O)(=O)NC(C)(C)CN1CCOCC1` [Compound I-153, (S)-4-fluoro-N-(1-(3-methoxy-4-(N-(2-methyl-1-morpholinopropan-2-yl)sulfamoyl)phenylamino)-1-oxo-3-phenylpropan-2-yl)benzamide] it is 0.05 to 1 µM.
As to `COc1cc(NC(=O)[C@H](Cc2ccccc2)NC(=O)c2ccc(F)cc2)ccc1S(=O)(=O)NC(C)(C)CCN1CCOCC1` [Compound I-154, (S)-4-fluoro-N-(1-(3-methoxy-4-(N-(2-methyl-4-morpholinobutan-2-yl)sulfamoyl)phenylamino)-1-oxo-3-phenylpropan-2-yl)benzamide], the IC50 under setting [2] was 0.05 to 1 µM.
Consider `COCC(C)(C)NS(=O)(=O)c1ccc(NC(=O)[C@H](Cc2ccccc2)N(C)C(=O)c2ccc(F)cc2)cc1OC` [Compound I-159, (S)-4-fluoro-N-(1-(3-methoxy-4-(N-(1-methoxy-2-methylpropan-2-yl)sulfamoyl)phenylamino)-1-oxo-3-phenylpropan-2-yl)-N-methylbenzamide], for which the IC50 under setting [2] is 1 to 10 µM.
`COCC(C)(C)NS(=O)(=O)c1ccc(NC(=O)[C@H](Cc2ccccc2)N(C)C(=O)c2ccc(F)cc2)cc1` [Compound I-160, (S)-4-fluoro-N-(1-(4-(N-(1-methoxy-2-methylpropan-2-yl)sulfamoyl)phenylamino)-1-oxo-3-phenylpropan-2-yl)-N-methylbenzamide]: under setting [2], the IC50 lay within 1 to 10 µM.
Take `CC(C)(CCN1CCOCC1)NS(=O)(=O)c1ccc(NC(=O)[C@H](Cc2ccccc2)NC(=O)c2ccc(F)cc2)cc1` [Compound I-163, (S)-4-fluoro-N-(1-(4-(N-(2-methyl-4-morpholinobutan-2-yl)sulfamoyl)phenylamino)-1-oxo-3-phenylpropan-2-yl)benzamide]: the IC50 under setting [1] was less than 0.05 µM.
Still for that read-out and setting: the figure for `CC(C)(C)NS(=O)(=O)c1ccc(NC(=O)[C@H](Cc2ccccc2)NS(=O)(=O)c2ccc(F)cc2)cc1` [Compound I-165, (S)-N-(4-(N-tert-butylsulfamoyl)phenyl)-2-(4-fluorophenylsulfonamido)-3-phenylpropanamide] is more than 10 µM.
Take `N#Cc1cc(NC(=O)[C@H](Cc2ccccc2)NC(=O)c2ccc(F)cc2)ccc1S(=O)(=O)NC12CC(C1)C2` [Compound I-166, (S)-N-(1-(4-(N-bicyclo[1.1.1]pentan-1-ylsulfamoyl)-3-cyanophenylamino)-1-oxo-3-phenylpropan-2-yl)-4-fluorobenzamide]: under setting [2], the 50% inhibitory concentration (IC50) was 0.05 to 1 µM.
Regarding `CC(C)(C)NS(=O)(=O)c1ccc(NC(=O)[C@H](Cc2ccccc2)NC(=O)c2ccc(F)cc2)cc1C#N` [Compound I-167, (S)-N-(1-(4-(N-tert-butylsulfamoyl)-3-cyanophenylamino)-1-oxo-3-phenylpropan-2-yl)-4-fluorobenzamide], under setting [1], the IC50 was less than 0.05 µM.
Turning to `CC(C)(C)NS(=O)(=O)c1ccc(NC(=O)[C@H](Cc2ccccc2)NC(=O)c2ccc(F)cc2)cc1Cl` [Compound I-168, (S)-N-(1-(4-(N-tert-butylsulfamoyl)-3-chlorophenylamino)-1-oxo-3-phenylpropan-2-yl)-4-fluorobenzamide], the IC50 under setting [1] is less than 0.05 µM.
As to `O=C(N[C@@H](Cc1ccccc1)C(=O)Nc1ccc(S(=O)(=O)NC23CC(C2)C3)c(Cl)c1)c1ccc(F)cc1` [Compound I-169, (S)-N-(1-(4-(N-bicyclo[1.1.1]pentan-1-ylsulfamoyl)-3-chlorophenylamino)-1-oxo-3-phenylpropan-2-yl)-4-fluorobenzamide], under setting [2], the 50% inhibitory concentration (IC50) was 0.05 to 1 µM.
As for `O=C(N[C@@H](Cc1ccccc1)C(=O)Nc1ccc(S(=O)(=O)NC2COC2)c(Cl)c1)c1ccc(F)cc1` [Compound I-170, (S)-N-(1-(3-chloro-4-(N-oxetan-3-ylsulfamoyl)phenylamino)-1-oxo-3-phenylpropan-2-yl)-4-fluorobenzamide], the IC50 under setting [2] is 0.05 to 1 µM.
`COCCC(C)(C)NS(=O)(=O)c1ccc(NC(=O)[C@H](Cc2ccccc2)NC(=O)c2ccc(F)cc2)cc1Cl` [Compound I-171, (S)-N-(1-(3-chloro-4-(N-(4-methoxy-2-methylbutan-2-yl)sulfamoyl)phenylamino)-1-oxo-3-phenylpropan-2-yl)-4-fluorobenzamide]: the IC50 under setting [2] lay in the range of 0.05 to 1 µM.
On to `CC(C)(C#N)NS(=O)(=O)c1ccc(NC(=O)[C@H](Cc2ccccc2)NC(=O)c2ccc(F)cc2)cc1` [Compound I-172, (S)-N-(1-(4-(N-(2-cyanopropan-2-yl)sulfamoyl)phenylamino)-1-oxo-3-phenylpropan-2-yl)-4-fluorobenzamide], for which, under setting [2], the IC50 is 0.05 to 1 µM.
